“And” between values parts separate entries of the source, which are not always exact repeats. Identical values can stand only once.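 Grown in 96-well plates, cells were treated for 48 hours with each compound at five concentrations. Insufficient inhibition: endpoint recorded as highest concentration tested. Here, GI50 denotes the concentration required for 50% inhibition of growth. At the TGI there is no net growth.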
Experiments:
Assay in all cases: NCI anticancer screen, dose series, 48 h
KM20L2 colon = system: KM20L2 colon
M19-MEL melanoma = system: M19-MEL melanoma
DMS 114 small cell lung = system: DMS 114 small cell lung
SNB-78 CNS = system: SNB-78 CNS
XF 498 CNS = system: XF 498 CNS
HOP-18 NSCLC = system: HOP-18 NSCLC
DLD-1 colon = system: DLD-1 colon
MDA-N = system: MDA-N
RXF-631 renal = system: RXF-631 renal

| SMILES | TGI (KM20L2 colon) | TGI (M19-MEL melanoma) | TGI (DMS 114 small cell lung) [µM] | TGI (SNB-78 CNS) [µM] | TGI (XF 498 CNS) [µM] | TGI (HOP-18 NSCLC) | TGI (DLD-1 colon) | TGI (MDA-N) [µM] | TGI (RXF-631 renal) [µM] | GI50 (KM20L2 colon) [µM] | GI50 (M19-MEL melanoma) [µM] | GI50 (HOP-18 NSCLC) [µM] | GI50 (DLD-1 colon) [µM] | GI50 (DMS 114 small cell lung) [µM] | GI50 (MDA-N) [µM] |
| --- | --- | --- | --- | --- | --- | --- | --- | --- | --- | --- | --- | --- | --- | --- | --- |
| CC(C)=CC(=O)Oc1ccc([N+](=O)[O-])cc1 | > 100 µM | > 100 µM | > 100 | > 100 | > 100 | > 100 µM | > 100 µM |  |  |  |  |  |  |  |  |
| FC(F)(F)c1cccc(COCCN2CCN(Cc3cccc(C(F)(F)F)c3)CC2)c1 |  |  |  |  |  |  |  | 34.4 |  |  |  |  |  |  |  |
| Cc1cccc(C)c1NC(=O)/C(Cl)=C(/Cl)C(=O)O | 20.8 µM | 43.7 µM | 43.2 | > 74.6 | 28.6 | 38.2 µM | 17.8 µM | 36.8 |  |  |  |  |  |  |  |
| COC1/C(=C\C(=O)OC(C)(C)C)c2ccccc2N1C(C)=O (configuration not stated) | > 100 µM | > 100 µM | > 100 | > 100 | > 100 | > 100 µM | > 100 µM |  | > 100 |  |  |  |  |  |  |
| CC(=O)NC1=C(Nc2ccc(C)cc2)C(=O)c2ccccc2C1=O | > 75 µM | 17.5 µM | 38.4 | > 75 | 73.1 | 28.5 µM | > 75 µM |  |  |  |  |  |  |  |  |
| O=C(O)c1c2c(c(C(=O)O)c3ccccc13)-c1ccccc1-2 | > 100 µM | > 100 µM | > 100 | > 100 | > 100 | 83.9 µM | > 100 µM |  |  |  |  |  |  |  |  |
| COC(=O)/C=C(C)/C=C/c1cc(C(C)=O)c(C)o1 | > 100 µM |  | > 100 | > 100 | > 100 | > 100 µM | > 100 µM |  |  |  |  |  |  |  |  |
| CC(=O)[CH-]C(=O)c1ccccc1.CC(=O)[CH-]C(=O)c1ccccc1.CC(=O)[CH-]C(=O)c1ccccc1.[Tl+3] | > 100 µM | > 100 µM |  |  |  | > 100 µM | > 100 µM |  |  | 45.6 | 38 | > 100 | 22.2 |  |  |
| CCOC(=O)/C(=C\c1ccc(OCc2ccccc2)c(OC)c1)C(=O)c1ccccc1 | 34.3 µM | 50 µM | 41.4 | 76.8 | 32.3 |  |  |  |  |  |  |  |  |  |  |
| CCOc1cc2c(cnc3c4cc(OC)c(OC)cc4ccc23)cc1OC | > 100 µM | > 100 µM | > 100 |  | > 100 |  | > 100 µM |  |  |  |  |  |  |  |  |
| C=C(Cl)COC(=O)Nc1cccc(Cl)c1 |  |  |  |  |  |  |  | > 100 |  |  |  |  |  |  |  |
| CN(C)CCCN=C(N)N |  |  |  |  |  |  |  | > 100 |  |  |  |  |  |  |  |
| OCC(O)C(O)C(O)C1SC(c2ccccc2)=NN1c1ccccc1 (configuration not stated) | > 100 µM | > 100 µM | > 100 | > 96.4 | > 78.1 | > 100 µM | > 100 µM | > 100 | > 100 |  |  |  |  |  |  |
| COc1ccc2c([nH]c3cc(O)c(C)cc32)c1C=O | > 25 µM | > 25 µM | > 25 | > 25 | > 25 |  | > 25 µM |  |  |  |  |  |  |  |  |
| N/N=C(\CC1OC(=O)c2ccccc21)c1ccco1 (configuration not stated) | > 100 µM | > 100 µM | > 100 |  |  | 0.343 µM | > 100 µM |  |  |  |  |  |  |  |  |
| COc1ccc(C(=O)C(c2ccc(OC)cc2)C2(O)C(=O)Nc3c(C)cc(Cl)cc32)cc1 (configuration not stated) | > 100 µM | 44.2 µM |  | > 100 |  |  | > 100 µM |  | > 100 |  |  |  |  |  |  |
| CC1(CO)OC1COCc1ccccc1 (configuration not stated) | > 100 µM |  | > 100 | > 100 | > 100 |  | > 100 µM |  | > 100 |  |  |  |  |  |  |
| CC(=O)OCSc1ncnc2c1ncn2CN1CCOCC1 | > 100 µM | > 100 µM | > 100 | > 100 |  | > 100 µM | > 100 µM |  |  |  |  |  |  |  |  |
| O=C(CNC(=O)OCc1ccccc1)Oc1ccccc1 | > 100 µM | > 100 µM | > 100 | > 100 | > 100 | > 100 µM | > 100 µM |  |  |  |  |  |  |  |  |
| COc1cc2c(c(OC)c1OC)-c1ccc(SC)c(=O)cc1[C@@H](NC(=O)c1ccc(OC(C)=O)cc1)CC2 | 0.0358 µM | > 100 µM | 0.0336 |  | 0.0597 |  | 28.8 µM |  | 18.1 |  |  |  |  | 0.0144 |  |
| C1CNCCNCCNCCN1 | > 100 µM | > 100 µM | > 100 | > 100 |  | > 100 µM | > 100 µM |  |  |  |  |  |  |  |  |

| SMILES | TGI (KM20L2 colon) | TGI (M19-MEL melanoma) | TGI (DMS 114 small cell lung) [µM] | TGI (SNB-78 CNS) [µM] | TGI (XF 498 CNS) [µM] | TGI (HOP-18 NSCLC) | TGI (DLD-1 colon) | TGI (MDA-N) [µM] | TGI (RXF-631 renal) [µM] | GI50 (KM20L2 colon) [µM] | GI50 (M19-MEL melanoma) [µM] | GI50 (HOP-18 NSCLC) [µM] | GI50 (DLD-1 colon) [µM] | GI50 (DMS 114 small cell lung) [µM] | GI50 (MDA-N) [µM] |
| --- | --- | --- | --- | --- | --- | --- | --- | --- | --- | --- | --- | --- | --- | --- | --- |
| N#CCc1ccc(C(C#N)/C(CCCC(=O)Nc2cccc([N+](=O)[O-])c2)=N\NC(=O)NN)cc1 (configuration not stated) | > 100 µM | > 100 µM | > 100 | > 100 |  | > 100 µM | > 100 µM |  |  |  |  |  |  |  |  |
| N#Cc1ccccc1NC(=O)/C(=N\NC(=O)c1ccncc1)C(c1cnc2ccc([N+](=O)[O-])cc2n1)[N+](=O)[O-] (configuration not stated) |  |  |  |  |  |  |  | > 100 |  |  |  |  |  |  |  |
| Clc1ccc(-n2nnc(C3=NCCCN3)c2-c2ccccc2)cc1 | > 100 µM | > 100 µM | > 100 | > 100 | > 100 | > 100 µM | > 100 µM |  |  |  |  |  |  |  |  |
| CC1(C)COCN1COC1CCCCC1 |  |  |  |  |  |  |  | > 100 |  |  |  |  |  |  |  |
| c1cc2c(cc1C(N1CCNCC1)N1CCNCC1)OCO2 |  |  |  |  |  |  |  | > 100 |  |  |  |  |  |  |  |
| CC(=O)OCC1OC(OC2CC3C(C)(C)C(OC(C)=O)CC[C@]3(C)C3CCC45CC4(CC[C@H]5C(C)CC(O)[C@@H](O)C(C)(C)O)[C@]23C)C(O)C(O)C1O (some centres not stated) | 14.4 µM and 21.6 µM | 13.7 µM and 12.7 µM |  |  | 33.9 | 15 µM and 17.3 µM | 13.7 µM and 23.2 µM |  |  |  | 3.18 | 5.43 | 10.4 |  |  |
| c1ccc(C(=NNc2nc3ccccc3o2)c2ccccn2)nc1 |  |  |  |  |  |  |  | 25.9 |  |  |  |  |  |  |  |
| Cc1cccc(C)c1NC(=O)CCCC(=O)CC(=O)/C=C/c1ccccc1 | > 100 µM | > 100 µM | > 100 | > 100 | > 100 | > 100 µM | > 100 µM |  | > 100 |  |  |  |  |  |  |
| Cc1nc2c(=O)[nH]c(=O)n(C)c2[nH]c1=O | > 100 µM | > 100 µM |  |  |  |  | > 100 µM |  |  |  |  |  |  |  |  |
| C=CC[C@H]1C[C@@]2(C)OC[C@H](C(C)C)N2C1=O | > 100 µM | > 100 µM |  | > 100 | > 100 | > 100 µM |  |  |  |  |  |  |  |  |  |
| CCCCCCCCCCC(C)CCCCCCC(=O)OCC(COP(=O)([O-])OCC[N+](C)(C)C)OC(=O)CCCCCCC(C)CCCCCCCCCC (configuration not stated) | > 100 µM | > 100 µM | > 100 | > 100 |  | > 100 µM | > 100 µM |  | > 100 |  |  |  |  |  |  |
| S=c1[nH]c(=S)c2sc(=S)n(-c3ccccc3)c2[nH]1 | > 100 µM | > 100 µM | > 100 | > 100 | > 100 | > 100 µM | > 100 µM |  |  |  |  |  |  |  |  |
| OC(C1=C/C(=C\c2ccncc2)c2ccccc21)c1ccncc1 (configuration not stated) |  |  |  |  |  |  |  | 30.4 |  |  |  |  |  |  |  |
| S=c1nc(Oc2ccc(Cl)c(Cl)c2)[nH]c(=S)[nH]1 | > 100 µM | 56.5 µM | 48.2 | > 100 | 65.6 | > 100 µM | 88.4 µM | > 100 | 32.8 |  |  |  |  |  |  |
| CN(C)CC(/C(Cc1ccccc1)=N\NC(=O)c1ccncc1)c1ccccc1 (configuration not stated) | 92.3 µM | > 100 µM | 81.8 |  | > 100 |  | > 100 µM |  | > 100 |  |  |  |  |  |  |
| COc1ccc(/C=C\c2cc(OC)c(OC)c(OC)c2)cc1OC(=O)C(N)CCC(=O)O (configuration not stated) | 9.55 µM | 67.3 µM |  | 46.4 | 0.0491 |  | > 100 µM |  |  | 1.51 |  |  |  |  | 0.000204 |
| O=C(/C=C/C=C/c1ccccc1)CCc1ccccc1 |  |  |  |  |  |  |  | > 100 |  |  |  |  |  |  |  |
| c1nc2cscc2c2cscc12 |  | > 100 µM | > 100 | > 100 | > 100 |  |  |  |  |  |  |  |  |  |  |
| COc1ccc(C2S/C(=C\c3cc(OC)c(OC)c(OC)c3)C(=O)N2NC(=O)Cc2ccccc2)cc1 (configuration not stated) |  | > 100 µM | > 100 |  |  | > 100 µM | > 100 µM |  |  |  |  |  |  |  |  |
| O=[N+]([O-])c1ccc(Sc2c3ccccc3nc3ccccc23)cc1 | > 100 µM | > 100 µM |  | > 100 | > 100 | > 100 µM | > 100 µM |  | > 100 |  |  |  |  |  |  |
| Cc1cc(O)c(C(=O)CC2(O)C(=O)Nc3c(Cl)cc(Cl)cc32)c(=O)o1 (configuration not stated) | > 100 µM | > 100 µM |  | > 100 | > 100 | > 100 µM | > 100 µM |  | > 100 |  |  |  |  |  |  |

Reference: PubChem BioAssay (NCI)
